Measured values taken from ChEMBL document CHEMBL5543174, “A Nonbactericidal Anionic Antimicrobial Peptide Provides Prophylactic and Therapeutic Efficacies against Bacterial Infections in Mice by Immunomodulatory-Antithrombotic Duality” (J Med Chem, 2024).
Activity calls are given as the source filed them. The calls are words filed in the database; no cut-off is given here.

What was measured:
Mus musculus [1] = assay: Anticoagulation activity in mouse assessed as change in plasma TFPI expression at 10 mg/kg,ip measured after 24 hrs by ELISA; format: functional, organism-based
Neutrophil [2] = assay: Induction of immune response in mouse bone marrow derived neutrophil assessed as neutrophil extracellular trap formation at 100 ug/ml incubated for 4 hrs by DAPI staining based fluorescence microscopic analysis; format: functional, cell-based; details: dose 100.0 µg/ml
Neutrophil [3] = assay: Induction of degranulation in mouse bone marrow derived neutrophil assessed as increase in BD-2 release at 25 to 100 ug/ml incubated for 6 hrs by ELISA; format: functional, cell-based; details: dose 25-100 µg/ml
Escherichia coli [4] = assay: Antibacterial activity against Escherichia coli ATCC 25922 infected in C57BL/6 mouse assessed as reduction in IL-6 level in serum at 10 mg/kg,ip administrated 5 hrs after bacterial infection measured after 24 hrs by ELISA; format: functional, organism-based; details: time 19.0 hrs
Mus musculus [5] = assay: Immunomodulatory activity in cyclophosphamide immunosuppressed C57BL/6 mouse with neutrophil depletion model assessed as change in B-lymphocytes in peritoneal lavage at 10 mg/kg,ip administration measured after 5 to 24 hrs by flow cytometry; format: functional, organism-based; details: time 5-24 hrs
Acinetobacter junii = assay: Antimicrobial activity against Acinetobacter junii ATCC 17908 assessed as inhibition of microbial growth at <= 200 ug/ml incubated for 18 hrs by micro-broth dilution method; format: functional, organism-based; details: dose <= 200.0 µg/ml
Escherichia coli [6] = assay: Antibacterial activity against Escherichia coli ATCC 25922 infected in C57BL/6 mouse assessed as increase in survival rate at 10 mg/kg,ip pre-administrated 5 hrs before bacterial infection measured after 7 days; format: functional, organism-based; details: time 7.0 day
Escherichia coli [7] = assay: Antibacterial activity against Carbapenem-resistant Escherichia coli infected in C57BL/6 mouse assessed as reduction in IL-1beta level in serum at 10 mg/kg,ip administrated 5 hrs after bacterial infection measured after 24 hrs by ELISA; format: functional, organism-based; details: time 19.0 hrs
Staphylococcus aureus [8] = assay: Antibacterial activity against Methicillin-resistant Staphylococcus aureus infected in C57BL/6 mouse assessed as reduction in IL-1beta level in serum at 10 mg/kg,ip pre-administrated 5 hrs before bacterial infection measured after 24 hrs by ELISA; format: functional, organism-based; details: time 29.0 hrs
Peritoneal macrophage [9] = assay: Immunoregulatory activity in mouse Peritoneal macrophage assessed as change in total p38 expression at 25 to 100 ug/ml incubated for 1 hr by Western blotting analysis; format: functional, cell-based; details: dose 25-100 µg/ml
Escherichia coli [10] = assay: (§1) Antibacterial activity against Carbapenem-resistant Escherichia coli infected in C57BL/6 mouse with cyclophosphamide-induced neutrophil depletion model assessed as decrease in bacterial burden in peritoneal cavity at 10 mg/kg,ip administrated 5 hrs after bacterial infection measured after 24 hrs; format: functional, organism-based; details: time 19.0 hrs
Mus musculus [11] = assay: Anticoagulation activity in mouse infected with Carbapenem-resistant Escherichia coli assessed as increase in plasma APC expression at 10 mg/kg,ip administrated 5 hrs after bacterial infection measured after 24 hrs by ELISA; format: functional, organism-based; details: time 19.0 hrs
Escherichia coli [12] = assay: Antibacterial activity against Escherichia coli ATCC 25922 infected in C57BL/6 mouse assessed as reduction in IL-6 level in peritoneal fluid at 10 mg/kg,ip administrated 5 hrs after bacterial infection measured after 24 hrs by ELISA; format: functional, organism-based; details: time 19.0 hrs
Peritoneal macrophage [13] = assay: Induction of chemotaxis in mouse Peritoneal macrophage assessed as upregulation of CXCL2 gene expression incubated for 6 hrs by qPCR analysis; format: functional, cell-based
Mus musculus [14] = assay: Anticoagulation activity in mouse infected with Carbapenem-resistant Escherichia coli assessed as increase in plasma AT-III expression at 10 mg/kg,ip administrated 5 hrs after bacterial infection measured after 24 hrs by ELISA; format: functional, organism-based; details: time 19.0 hrs
Mus musculus [15] = assay: Immunomodulatory activity in cyclophosphamide immunosuppressed C57BL/6 mouse with neutrophil depletion model assessed as increase in number of neutrophil in peritoneal lavage at 10 mg/kg,ip administration measured after 5 hrs by flow cytometry; format: functional, organism-based
Escherichia coli [16] = assay: as §1, with “mg/kg,ip pre-administrated” for “mg/kg,ip administrated”, “hrs before” for “hrs after”; format: functional, organism-based; details: time 29.0 hrs
Staphylococcus aureus [17] = assay: Antimicrobial activity against Methicillin-resistant Staphylococcus aureus assessed as reduction in microbial colony forming unit at 200 ug/ml incubated for 1 to 4 hrs by time-kill kinetics based analysis; format: functional, organism-based; details: dose 200.0 µg/ml, time 1-4 hrs
Peritoneal macrophage [18] = assay: Induction of chemotaxis in mouse Peritoneal macrophage assessed as increase in macrophage migration incubated for 8 hrs by crystal violet staining based indirect transwell assay; format: functional, cell-based
Mus musculus [19] = assay: Anticoagulation activity in mouse infected with Carbapenem-resistant Escherichia coli assessed as increase in plasma APC expression at 10 mg/kg,ip pre-administrated 5 hrs before bacterial infection measured after 24 hrs by ELISA; format: functional, organism-based; details: time 29.0 hrs
Staphylococcus aureus [20] = assay: Antibacterial activity against Staphylococcus aureus ATCC 25923 infected in C57BL/6 mouse assessed as reduction in IL-1beta level in peritoneal fluid at 10 mg/kg,ip administrated 5 hrs after bacterial infection measured after 24 hrs by ELISA; format: functional, organism-based; details: time 19.0 hrs
Staphylococcus aureus [21] = assay: Antibacterial activity against Methicillin-resistant Staphylococcus aureus infected in C57BL/6 mouse with clodronate liposome-induced monocyte depletion model assessed as reduction of bacterial burden in peritoneal cavity at 10 mg/kg,ip administrated 5 hrs after bacterial infection measured after 24 hrs; format: functional, organism-based; details: time 19.0 hrs
Escherichia coli [22] = assay: Antibacterial activity against Carbapenem-resistant Escherichia coli infected in C57BL/6 mouse assessed as reduction in IL-6 level in peritoneal fluid at 10 mg/kg,ip administrated 5 hrs after bacterial infection measured after 24 hrs by ELISA; format: functional, organism-based; details: time 19.0 hrs
Alcaligenes faecalis = assay: Antimicrobial activity against Alcaligenes faecalis ATCC 8750 assessed as inhibition of microbial growth at <= 200 ug/ml incubated for 18 hrs by micro-broth dilution method; format: functional, organism-based; details: dose <= 200.0 µg/ml
Escherichia coli [23] = assay: Antibacterial activity against Carbapenem-resistant Escherichia coli infected in C57BL/6 mouse assessed as increase in survival rate at 10 mg/kg,ip pre-administrated 5 hrs before bacterial infection measured after 7 days; format: functional, organism-based; details: time 7.0 day
Staphylococcus aureus [24] = assay: Antibacterial activity against Methicillin-resistant Staphylococcus aureus infected in C57BL/6 mouse assessed as reduction in inflammatory injury in lung at 10 mg/kg,ip pre-administrated 5 hrs before bacterial infection measured after 24 hrs by hematoxylin and eosin staining based analysis; format: functional, organism-based; details: time 29.0 hrs
[25] = tested on: Peritoneal macrophage cell; assay: Induction of phagocytosis in mouse Peritoneal macrophage assessed as increase in neutral red dye uptake by measuring optical density absorbance at 100 ug/ml incubated for 24 hrs followed by dye addition measured after 4 hrs by absorbance based assay (reference value: 0.089); format: functional; details: dose 100 µg/ml; time 28 hrs
[26] = tested on: Peritoneal macrophage cell; assay: Induction of chemotaxis in mouse Peritoneal macrophage assessed as upregulation of CXCL2 expression incubated for 6 hrs by ELISA; format: functional, cell-based
Morganella morganii = assay: Antimicrobial activity against Morganella morganii ATCC25830 assessed as inhibition of microbial growth at <= 200 ug/ml incubated for 18 hrs by micro-broth dilution method; format: functional, organism-based; details: dose <= 200.0 µg/ml
Mus musculus [27] = assay: Induction of chemotaxis in C57BL/6 mouse assessed as upregulation of CXCL2 expression in peritoneal lavage at 10 mg/kg,ip administration measured at 5 to 24 hrs by ELISA; format: functional, organism-based; details: time 5-24 hrs
Escherichia coli [28] = assay: Antibacterial activity against Carbapenem-resistant Escherichia coli infected in C57BL/6 mouse assessed as reduction in IL-6 level in peritoneal fluid at 10 mg/kg,ip pre-administrated 5 hrs before bacterial infection measured after 24 hrs by ELISA; format: functional, organism-based; details: time 29.0 hrs

Q: With `CC[C@H](C)[C@H](NC(=O)[C@@H]1CSSC[C@H](NC(=O)[C@H](CCC(=O)O)NC(=O)[C@@H](NC(=O)[C@H](CCCCN)NC(=O)[C@H](Cc2c[nH]cn2)NC(=O)[C@@H](NC(=O)[C@H](CCCCN)NC(=O)[C@H](CCC(=O)O)NC(=O)[C@H](C)NC(=O)[C@H](CCC(=O)O)NC(=O)[C@H](CCC(=O)O)NC(=O)[C@H](CCC(=O)O)NC(=O)[C@H](C)N)[C@@H](C)O)[C@@H](C)O)C(=O)N[C@@H](CC(C)C)C(=O)N[C@@H](CCC(=O)O)C(=O)N1)C(=O)N[C@@H](Cc1ccccc1)C(=O)N[C@H](C(=O)N[C@@H](CC(C)C)C(=O)N[C@@H](CC(C)C)C(=O)N1CCC[C@H]1C(=O)N1CCC[C@@H]1C(=O)N[C@H](C)C(=O)O)[C@@H](C)O` as the compound, how does the Activity (Mus musculus [1]) read?
A: Its Activity is “inactive”.

Q: And the Activity (Neutrophil [2])?
A: Its Activity is “Active”.

Q: What about the Activity (Neutrophil [3]) of the same compound?
A: The Activity was “inactive”.

Q: What about the Activity (Escherichia coli [4]) of the same compound?
A: Its Activity is “Active”.

Q: And the Activity (Mus musculus [5])?
A: Its Activity is “inactive”.

Q: What about the Activity (Acinetobacter junii) of the same compound?
A: Its Activity is “inactive”.

Q: What about the Activity (Escherichia coli [6]) of the same compound?
A: The Activity was “Active”.

Q: And the Activity (Escherichia coli [7])?
A: The Activity was “Active”.

Q: What about the Activity (Staphylococcus aureus [8]) of the same compound?
A: Its Activity is “Active”.

Q: And the Activity (Peritoneal macrophage [9])?
A: The Activity was “inactive”.

Q: And the Activity (Escherichia coli [10])?
A: Its Activity is “inactive”.

Q: And the Activity (Mus musculus [11])?
A: Its Activity is “Active”.

Q: What about the Activity (Escherichia coli [12]) of the same compound?
A: Its Activity is “Active”.

Q: And the Activity (Peritoneal macrophage [13])?
A: Its Activity is “Dose-Dependent Effect”.

Q: What about the Activity (Mus musculus [14]) of the same compound?
A: Its Activity is “Active”.

Q: And the Activity (Mus musculus [15])?
A: The Activity was “Active”.

Q: And the Activity (Escherichia coli [16])?
A: The Activity was “inactive”.

Q: What about the Activity (Staphylococcus aureus [17]) of the same compound?
A: The Activity was “inactive”.

Q: And the Activity (Peritoneal macrophage [18])?
A: The Activity was “Dose-Dependent Effect”.

Q: And the Activity (Mus musculus [19])?
A: Its Activity is “Active”.

Q: What about the Activity (Staphylococcus aureus [20]) of the same compound?
A: The Activity was “Active”.

Q: And the Activity (Staphylococcus aureus [21])?
A: Its Activity is “inactive”.

Q: And the Activity (Escherichia coli [22])?
A: The Activity was “Active”.

Q: And the Activity (Alcaligenes faecalis)?
A: The Activity was “inactive”.

Q: What about the Activity (Escherichia coli [23]) of the same compound?
A: Its Activity is “Active”.

Q: What about the Activity (Staphylococcus aureus [24]) of the same compound?
A: The Activity was “Active”.

Q: What about the OD [25] of the same compound?
A: Its OD is 0.111.

Q: And the Activity [26]?
A: Its Activity is “Dose-Dependent Effect”.

Q: And the Activity (Morganella morganii)?
A: The Activity was “inactive”.

Q: What about the Activity (Mus musculus [27]) of the same compound?
A: The Activity was “inactive”.

Q: What about the Activity (Escherichia coli [28]) of the same compound?
A: Its Activity is “Active”.
